Data as given in patent US20240145031A1, “Methods and devices for drug repositioning and drug repurposing as nuclear receptor modulators” (Precision Medicine Lab, priority 2022, published 2024).
Where two headings read alike, the source gives them in different places. Blank lines part the entries; values can stand above or below the compound they belong to.

Tests used:
[1] = target: T1, glucocorticoid receptor recombinant human protein, ligand binding domain (LBD) (Homo sapiens, UniProt P04150); assay: nuclear receptor cofactor recruitment peptide array (70 coregulator peptides), ligand induced cofactor peptide interaction profiling; type: biochemical; conditions: for weighted log fold change: example 3, weight factors of table 7
T1 construct: purchased Thermo Fisher Scientific A15668
T1 sequence (P04150 524-758 limits assumed): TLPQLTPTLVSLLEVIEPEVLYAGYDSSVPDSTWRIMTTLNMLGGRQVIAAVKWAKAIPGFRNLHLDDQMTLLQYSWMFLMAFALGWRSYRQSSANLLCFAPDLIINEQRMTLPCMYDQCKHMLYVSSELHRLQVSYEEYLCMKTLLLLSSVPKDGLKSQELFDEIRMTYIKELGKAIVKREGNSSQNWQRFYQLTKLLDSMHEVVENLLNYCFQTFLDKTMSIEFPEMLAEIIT
Protocol: Interactions between the glucocorticoid receptor ligand binding domain and the selected drugs for repurposing and coregulator peptides were determined using the method as described by Zalachoras et al 2013^xxvii Each peptide array consisting of 70 coregulator peptides as described in table 1 were incubated with a reaction mixture of 1 nM purified glucocorticoid receptor recombinant human protein, ligand binding domain (LBD), (Thermo Fisher Scientific, cat #A15668), ALEXA488-conjugated anti-GST antibody and buffer F (PV4689, A-11131, and PV4547; Invitrogen). […] For ligand induced cofactor peptide interaction profiling the set of repurposing drugs were tested at a concentration of 0.05 mM compared to solvent (2% DMSO in water). Incubation was performed at 20° C. on the cofactor peptide array. Glucocorticoid receptor binding to each peptide on the array, reflected by fluorescent signal, was quantified by image analysis using R-based software (Precision Medicine Lab). The 70 coregulator peptides used represent a range of coregulator nuclear receptor-boxes known to interact with the glucocorticoid receptor and other nuclear receptors. The binding profiles were generated for glucocorticoid receptor-LBD treated with the repurposing drugs vs cortisol.
The R2 is calculated using the data for each of the 70 cofactor peptides using the same weight.
In this example a weight factor was applied on the log fold change data of example 1 to determine the similarities between the tested repositioning drugs versus cortisol using the coefficient of determination, R2, between the weighted log fold change data of the tested repurposing drug to the positive control, cortisol. […] In this example 14 cofactor peptides were used (table 3).

[2] = target: T1, glucocorticoid receptor recombinant human protein, ligand binding domain (LBD); assay: as above; type: biochemical; conditions: example 3, weight factors of table 7

binding to coregulator peptide no 22 NCOA1_1421_1444 compared to the negative control (NC), DMSO [1]: increased binding
Compound: Dexamethasone [Drug 3]

Compound: C[C@]12CCC(=O)C=C1CC[C@@H]1[C@@H]2[C@@H](O)C[C@@]2(C)[C@H]1CC[C@]2(O)C(=O)CO [PC, Cortisol]
weighted log fold change ([2]; peptide 22 NCOA1_1421_1441): 1.715
weighted log fold change ([2]; peptide 31 NCOA3_726_747): 0.515
weighted log fold change ([2]; peptide 39 NR0B2_107_128): 0.769
weighted log fold change ([2]; peptide 42 NRIP1_369_390): 0.128
weighted log fold change ([2]; peptide 45 NRIP1_810_831): 0.057
binding to coregulator peptide no 22 NCOA1_1421_1444 compared to the negative control (NC), DMSO ([1]; FIG. 2, 0.05 mM): increased binding
weighted log fold change ([1]; peptide 24 NCOA1_738_759): 0.168
weighted log fold change ([1]; peptide 26 NCOA2_679_700): 0.056
weighted log fold change ([1]; peptide 27 NCOA2_734_755): 0.366
weighted log fold change ([1]; peptide 52 PELP1_21_42): 0.028
weighted log fold change ([1]; peptide 58 PRGC1_134_154): 0.835
weighted log fold change ([1]; peptide 59 PRGC2_146_166): 0.113
weighted log fold change ([1]; peptide 63 TIF1A_748_769): 0.058
weighted log fold change ([1]; peptide 68 UBE3A_650_671): 0.357
weighted log fold change ([1]; peptide 70 ZNHI3_90_111): 0.025
log fold change ([1]; example 4, weight factor of 1, peptide 11 IKBB_278_299): 0.611
log fold change ([1]; example 4, weight factor of 1, peptide 27 NCOA2_734_755): 1.465
log fold change ([1]; example 4, weight factor of 1, peptide 59 PRGC2_146_166): 0.902
log fold change ([1]; example 4, weight factor of 1, peptide 68 UBE3A_650_671): 1.430
log fold change ([1]; peptide 1 ANDR_11_32, 0.05 mM vs solvent (2% DMSO)): 0.549
log fold change ([1]; peptide 2 CBP_2056_2077, 0.05 mM vs solvent (2% DMSO)): 0.473
log fold change ([1]; peptide 3 CENPR_159_177, 0.05 mM vs solvent (2% DMSO)): 0.669
log fold change ([1]; peptide 4 CHD9_1024_1045, 0.05 mM vs solvent (2% DMSO)): 0.375
log fold change ([1]; peptide 5 CNOT1_141_162, 0.05 mM vs solvent (2% DMSO)): 0.446
log fold change ([1]; peptide 6 CNOT1_558_579, 0.05 mM vs solvent (2% DMSO)): 0.386
log fold change ([1]; peptide 7 DHX30_49_70, 0.05 mM vs solvent (2% DMSO)): 0.446
log fold change ([1]; peptide 8 EP300_2040_2061, 0.05 mM vs solvent (2% DMSO)): 0.383
log fold change ([1]; peptide 9 EP300_70_91, 0.05 mM vs solvent (2% DMSO)): 0.813
log fold change ([1]; peptide 11 IKBB_278_299, 0.05 mM vs solvent (2% DMSO)): 0.611
log fold change ([1]; peptide 13 KMT2D_2674_2695, 0.05 mM vs solvent (2% DMSO)): 0.589
log fold change ([1]; peptide 14 LCOR_41_62, 0.05 mM vs solvent (2% DMSO)): 1.238
log fold change ([1]; peptide 15 MAPE_250_271, 0.05 mM vs solvent (2% DMSO)): 0.090
log fold change ([1]; peptide 16 MAPE_301_322, 0.05 mM vs solvent (2% DMSO)): −0.294
log fold change ([1]; peptide 17 MED1_593_614, 0.05 mM vs solvent (2% DMSO)): 0.949
log fold change ([1]; peptide 18 MEN1_256_277, 0.05 mM vs solvent (2% DMSO)): 0.192
log fold change ([1]; peptide 19 MGMT_87_108, 0.05 mM vs solvent (2% DMSO)): 0.250
log fold change ([1]; peptide 20 MLL2_4176_4197, 0.05 mM vs solvent (2% DMSO)): 0.650
log fold change ([1]; peptide 21 MLL2_4703_4724, 0.05 mM vs solvent (2% DMSO)): 0.531
log fold change ([1]; peptide 22 NCOA1_1421_1441, 0.05 mM vs solvent (2% DMSO)): 1.715
log fold change ([1]; peptide 23 NCOA1_679_700, 0.05 mM vs solvent (2% DMSO)): 1.097
log fold change ([1]; peptide 24 NCOA1_738_759, 0.05 mM vs solvent (2% DMSO)): 1.340
log fold change ([1]; peptide 25 NCOA2_630_651, 0.05 mM vs solvent (2% DMSO)): 1.253
log fold change ([1]; peptide 26 NCOA2_679_700, 0.05 mM vs solvent (2% DMSO)): 1.777
log fold change ([1]; peptide 27 NCOA2_734_755, 0.05 mM vs solvent (2% DMSO)): 1.465
log fold change ([1]; peptide 28 NCOA2_867_888, 0.05 mM vs solvent (2% DMSO)): 0.263
log fold change ([1]; peptide 29 NCOA3_610_631, 0.05 mM vs solvent (2% DMSO)): 1.176
log fold change ([1]; peptide 30 NCOA3_674_695, 0.05 mM vs solvent (2% DMSO)): 0.197
log fold change ([1]; peptide 31 NCOA3_726_747, 0.05 mM vs solvent (2% DMSO)): 1.029
log fold change ([1]; peptide 32 NCOA4_316_337, 0.05 mM vs solvent (2% DMSO)): 0.839
log fold change ([1]; peptide 34 NCOR1_1925_1946, 0.05 mM vs solvent (2% DMSO)): 0.398
log fold change ([1]; peptide 35 NCOR1_2040_2061, 0.05 mM vs solvent (2% DMSO)): 0.391
log fold change ([1]; peptide 36 NELFB_329_350, 0.05 mM vs solvent (2% DMSO)): 0.195
log fold change ([1]; peptide 38 NR0B1_2_23, 0.05 mM vs solvent (2% DMSO)): 0.415
log fold change ([1]; peptide 39 NR0B2_107_128, 0.05 mM vs solvent (2% DMSO)): 1.538
log fold change ([1]; peptide 41 NRIP1_174_195, 0.05 mM vs solvent (2% DMSO)): 0.213
log fold change ([1]; peptide 42 NRIP1_369_390, 0.05 mM vs solvent (2% DMSO)): 1.027
log fold change ([1]; peptide 43 NRIP1_489_510, 0.05 mM vs solvent (2% DMSO)): 0.954
log fold change ([1]; peptide 44 NRIP1_701_722, 0.05 mM vs solvent (2% DMSO)): 0.609
log fold change ([1]; peptide 45 NRIP1_810_831, 0.05 mM vs solvent (2% DMSO)): 0.909
log fold change ([1]; peptide 46 NRIP1_925_946, 0.05 mM vs solvent (2% DMSO)): 0.970
log fold change ([1]; peptide 47 NSD1_895_916, 0.05 mM vs solvent (2% DMSO)): 0.886
log fold change ([1]; peptide 48 PAGR1_103_124, 0.05 mM vs solvent (2% DMSO)): 1.057
log fold change ([1]; peptide 49 PAK6_249_270, 0.05 mM vs solvent (2% DMSO)): 0.362
log fold change ([1]; peptide 50 PCAF_179_200, 0.05 mM vs solvent (2% DMSO)): 0.771
log fold change ([1]; peptide 51 PELP1_169_190, 0.05 mM vs solvent (2% DMSO)): 0.496
log fold change ([1]; peptide 52 PELP1_21_42, 0.05 mM vs solvent (2% DMSO)): 0.888
log fold change ([1]; peptide 53 PELP1_447_468, 0.05 mM vs solvent (2% DMSO)): 0.771
log fold change ([1]; peptide 54 PIAS2_7_28, 0.05 mM vs solvent (2% DMSO)): 0.383
log fold change ([1]; peptide 55 PNRC1_306_327, 0.05 mM vs solvent (2% DMSO)): 0.568
log fold change ([1]; peptide 56 PPRC1_152_173, 0.05 mM vs solvent (2% DMSO)): 0.380
log fold change ([1]; peptide 57 PR285_1106_1127, 0.05 mM vs solvent (2% DMSO)): 1.167
log fold change ([1]; peptide 58 PRGC1_134_154, 0.05 mM vs solvent (2% DMSO)): 1.669
log fold change ([1]; peptide 59 PRGC2_146_166, 0.05 mM vs solvent (2% DMSO)): 0.902
log fold change ([1]; peptide 60 PRGC2_338_358, 0.05 mM vs solvent (2% DMSO)): 1.230
log fold change ([1]; peptide 61 PROX1_58_79, 0.05 mM vs solvent (2% DMSO)): 0.547
log fold change ([1]; peptide 62 RAD9A_349_370, 0.05 mM vs solvent (2% DMSO)): 0.503
log fold change ([1]; peptide 63 TIF1A_748_769, 0.05 mM vs solvent (2% DMSO)): 0.930
log fold change ([1]; peptide 64 TIP60_477_498, 0.05 mM vs solvent (2% DMSO)): 0.672
log fold change ([1]; peptide 65 TREF1_169_190, 0.05 mM vs solvent (2% DMSO)): 0.886
log fold change ([1]; peptide 66 TRRAP_972_993, 0.05 mM vs solvent (2% DMSO)): 1.371
log fold change ([1]; peptide 67 TRXR1_133_154, 0.05 mM vs solvent (2% DMSO)): 0.623
log fold change ([1]; peptide 68 UBE3A_650_671, 0.05 mM vs solvent (2% DMSO)): 1.430
log fold change ([1]; peptide 69 WIPI1_120_141, 0.05 mM vs solvent (2% DMSO)): 1.049
log fold change ([1]; peptide 70 ZNHI3_90_111, 0.05 mM vs solvent (2% DMSO)): 0.814
